{"source": "patent US11813264B2", "about": "“PAR1 modulation to alter myelination” (Mayo Foundation for Medical Education and Research, priority 2014, dated 2023)", "key": {"[1]": {"tested_on": "rat primary oligodendrocytes", "settings": "30 or 300 nM, 24 hours; cited from earlier work"}, "[2]": {"tested_on": "spinal cord white matter", "test": "Microinjection of Klk6 or PAR1-AP into spinal cord dorsal column white matter", "format": "in vivo, mouse", "description": "In vivo effects of excess Klk6 or PAR1-AP in spinal cord white matter: All mice were administered Buprenorphine preoperatively (Buprenex, 0.03 mg/kg, intraperitoneal (i.p.), Reckitt Benckise, Slough, UK) and every 12 hours for the first 48 hours following surgery. Surgical anesthesia was induced in age-matched male C57BL6/J or PAR12/2 mice using Ketamine (Ketaset, 80 mg/kg, Fort Dodge Animal Health, Fort Dodge, IA) and Xylazine i.p. (Anased, 10 mg/kg, Lloyd Laboratories, Shenendoah, IA). A thoracic (T11-T12) laminectomy was performed and a 30-40 μm glass capillary needle inserted into a 10 μL gas-tight Hamilton Syringe (Hamilton Company, Reno, NV) used to deliver 2 μL of Klk6 (0.01 μg/μL (300 nM)), PAR1-AP (0.01 μg/μL (100 μM)), or vehicle (physiologic saline) alone (n=3 for each treatment group) using a stereotaxic injection system (Stoelting, Wood Dale, IL). Under micromanipulator control (MyNeurolab, Richmond, IL), the needle was inserted 350 μm into the dorsal column, infusion carried out over 5 minutes and the needle left in place for 3 minutes to avoid backflow. All mice received 0.5 mL of sterile saline and Baytril (2.5 mg/kg, Bayer Healthcare, Shawnee Mission, KS) i.p. postoperatively.\nSeventy-two hours after microinjection of PAR1 agonists, mice were deeply anesthetized with Nembutal (50 mg/kg, i.p., Lundbeck, Deerfield, IL) and perfused transcardially with 4% PFA. Two millimeter transverse spinal cord segments encompassing the microinjection epicenter as well as 2 mm rostral and caudal were embedded in paraffin. Six micrometer sections were cut and slide mounted serially. Every sixth slide was stained with hematoxylin and eosin (H&E). Adjacent sections were immunostained for oligodendroglia using an antibody specific for CC-1/APC (ab16794, AbCam, Cambridge, MA), myelin using an antibody recognizing MBP (MAB386, Millipore, Bedford, MA), and standard avidin-biotin immunoperoxidase techniques (Scarisbrick et al., J Comp Neurol 431:347-361, 2001; and Scarisbrick et al. 2012b, supra). Stained sections were cover slipped with Permount (Fisher Scientific, Pittsburgh, PA) containing 2 mg/mL bisbenzamide to visualize nuclei (Sigma Aldrich).\nMeasurements of white matter lesion area were based on signs of pathology (vacuolation, tissue destruction, hemorrhage) in 20× digital images of H&E stained sections. The largest lesion area in each animal was used to determine mean maximal lesion area and expressed in μm^2. The integrity of MBP immunoreactivity was assessed in sections for 2,000 μm rostrocaudal to the microinjection site. The number of dorsal column CC-1^+/DAPI^+ cells was quantified in sections across […] of spinal cord extending rostrocaudal to the epicenter. The mean area of dorsal column white matter in the intact spinal cord was approximately […]. To put the number of CC-1^+ oligodendrocytes into context, the mean number CC-1V cells per mm^2 was evaluated as the mean number per […]. Sections stained for CC-1 were also stained for GFAP (Sigma Aldrich), allowing for the exclusion of CC-1^+ astrocytes; however, no examples of double labeled cells were observed."}, "[3]": {"tested_on": "primary oligodendrocyte cultures (3 DIV)", "test": "Oligodendrocyte morphological differentiation scoring (simple, incomplete, complete, membrane), process and cell number", "format": "cell-based, mouse", "settings": "24 hours", "description": "Oligodendrocyte Cultures: Purified cortical oligodendrocyte progenitor cells (OPCs) and differentiated oligodendrocytes were isolated from mixed glial cultures derived from postnatal day 1 mice (McCarthy and de Vellis, J Cell Blot 85:890-902, 1980). Glial cultures were grown in media containing DMEM, 2 mM Glutamax, 1 mM sodium pyruvate, 20 mM HEPES, and 10% heat-inactivated fetal calf serum (Atlanta Biologicals, Lawrenceville, GA). OPCs were isolated from 10 days-in-vitro (DIV) mixed glial cultures by overnight shaking and purified by differential adhesion. OPCs were seeded in defined Neurobasal A media containing 1% N2, 50 U/mL penicillin/streptomycin, 2 mM Glutamax, 1 mM sodium pyruvate, 0.45% glucose, and 50 μM β-mercaptoethanol (Sigma Aldrich, USA). OPCs were seeded at 3×10^4/cm^2 onto tissue culture plastic or 12 mm glass cover slips coated with poly-L-lysine (PLL, 10 μg/mL). After 24 h, cultures were 92-98% immunoreactive (IR) for sulfatide (O4) and by 72 hours at least 80% were also MBP-IR.\nPAR agonist-induced changes in oligodendrocyte morphology: To determine the effects of recombinant Klk6, Klk1, thrombin, or PAR1-AP on oligodendroglia, 3 DIV PAR1^+/+, PAR1^−/−, and PAR2^−/− oligodendrocytes, PAR1^+/+ OPCs immediately post purification, or Oli-neu cells were grown on cover slips in the presence of agonists for 24 h. For ATP toxicity assays, oligodendrocytes were incubated with ATP (50 μM, Sigma Aldrich) in the presence of Klk6 or Klk1. Following each treatment, oligodendrocyte and OPC cultures were immunolabeled for O4 to visualize the cell body and processes. Oli-neu processes were visualized by staining the actin cytoskeleton with Cy3-conjugated Phalloidin.\nTo assess the effects of Klk6 and other PAR1 agonists on oligodendrocyte morphology and process stability, 20× digital micrographs were overlaid with a 780 μm^2 grid and ImageJ software 1.45r (National Institutes of Health) used to record cell number and the number of processes crossing horizontal grid lines (Scarisbrick et al., Brain 125:1283-1296, 2002). Data are expressed as the mean number of O4^+ or Phalloidin^+ processes per DAPI^+ cell (±SEM).\nThe extent of oligodendrocyte morphological differentiation was determined by scoring O4^+/DAPI^+ oligodendrocyte morphology as simple (only primary processes, no secondary branching), incomplete (one or more primary process without secondary branching), complete (all primary processes with secondary branching), or membrane (complete secondary branching with membrane sheets) (Huang et al., Nat Neurosci 14:45-53, 2011). The mean number of cells in each morphology class was determined across treatments and expressed as percent of total O4^+/DAPI^+ cells.\nChanges in OPC or oligodendrocyte morphology were quantified from five microscopic fields per cover slip with the mean and SEM calculated across three cover slips per experiment. Each experiment was repeated at least twice using independent cultures. Analysis of oligodendrocyte morphology was performed without knowledge of treatment groups."}}, "data": [{"substance": "Klk6: Recombinant murine kallikrein-related peptidase 6 expressed using a baculovirus system", "values": [{"measurement": "process retraction and oligodendrocyte degeneration", "setting": "[1]", "value": "significant process retraction without oligodendrocyte degeneration"}, {"measurement": "maximal lesion area relative to saline alone", "setting": "[2]; PAR1+/+ mice", "value": "enhanced"}, {"measurement": "reduction of CC-1+ cells in dorsal column white matter", "setting": "[2]; PAR1+/+ mice", "value": "~15", "unit": "%"}, {"measurement": "rostrocaudal white matter pathology versus saline alone", "setting": "[2]; PAR1+/+ mice", "value": "two-fold greater"}, {"measurement": "loss of MBP-immunoreactivity relative to saline alone", "setting": "[2]; PAR1+/+ mice, 72 hours", "value": "~45", "unit": "%"}, {"measurement": "white matter surrounding injection site with vacuolating myelinopathy, tissue destruction and hemorrhage", "setting": "[2]; PAR1+/+ mice, 0.02 μg total, 72 hours", "value": "over 1,200 μm"}, {"measurement": "rostrocaudal white matter pathology", "setting": "[2]; PAR1+/+ mice, 0.02 μg, 72 hours", "value": "1,242.0±95.3 μm"}, {"measurement": "white matter pathology", "setting": "[2]; PAR1-/- mice", "value": "largely absent"}, {"measurement": "number of incomplete oligodendrocyte morphologies", "setting": "[3]; 150 nM", "value": "greater than four-fold increase"}, {"measurement": "number of simple oligodendrocyte morphologies", "setting": "[3]; 150 nM", "value": "two-fold increase"}, {"measurement": "oligodendrocytes with complete morphology", "setting": "[3]; 150 nM", "value": "nearly eleven-fold decrease"}, {"measurement": "oligodendroglia with membrane morphology", "setting": "[3]; 150 nM", "value": "elimination"}, {"measurement": "oligodendrocyte number", "setting": "[3]; Klk6 150 nM, Klk1 300 nM", "value": "no significant effect"}, {"measurement": "processes per cell", "setting": "[3]; Klk6 150 nM, Klk1 300 nM", "value": "two-fold fewer"}]}]}
